One block for each molecule: values may come before it. The source made the active and inactive calls.
Experiments:
Ephrin type-A receptor 4 = Ephrin type-A receptor 4 (Mus musculus, UniProt Q03137); assay: inhibitors of EphA4 binding to KYL peptide, primary screen, biochemical, colorimetric, mouse EphA4 (AID 689); assay type: functional
Protein skinhead-1 = molecular target: T1, Protein skinhead-1 (Caenorhabditis elegans, UniProt P34707); assay type: functional
T1 sequence (P34707 whole entry): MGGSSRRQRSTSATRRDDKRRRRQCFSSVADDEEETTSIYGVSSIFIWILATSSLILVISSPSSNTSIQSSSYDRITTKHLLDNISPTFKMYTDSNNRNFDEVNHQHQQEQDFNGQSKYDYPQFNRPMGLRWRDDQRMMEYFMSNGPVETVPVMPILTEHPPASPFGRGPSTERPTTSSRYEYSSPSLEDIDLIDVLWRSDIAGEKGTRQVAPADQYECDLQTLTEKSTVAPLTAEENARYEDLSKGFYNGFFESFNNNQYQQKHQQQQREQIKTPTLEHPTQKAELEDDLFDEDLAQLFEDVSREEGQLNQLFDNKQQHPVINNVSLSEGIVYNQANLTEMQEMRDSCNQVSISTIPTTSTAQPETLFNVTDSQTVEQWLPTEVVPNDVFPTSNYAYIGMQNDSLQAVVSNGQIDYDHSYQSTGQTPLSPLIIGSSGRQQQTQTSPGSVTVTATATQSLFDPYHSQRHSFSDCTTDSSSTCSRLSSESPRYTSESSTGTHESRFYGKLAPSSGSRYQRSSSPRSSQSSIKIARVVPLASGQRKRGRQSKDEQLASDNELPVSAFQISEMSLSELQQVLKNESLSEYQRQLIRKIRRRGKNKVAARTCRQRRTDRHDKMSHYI

Cytochrome P450 2D6 = Cytochrome P450 2D6 (Homo sapiens, UniProt P10635);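 further: CYP2D6 member of a cytochrome P450 panel assay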
Sequence of Cytochrome P450 2D6 (P10635 whole entry): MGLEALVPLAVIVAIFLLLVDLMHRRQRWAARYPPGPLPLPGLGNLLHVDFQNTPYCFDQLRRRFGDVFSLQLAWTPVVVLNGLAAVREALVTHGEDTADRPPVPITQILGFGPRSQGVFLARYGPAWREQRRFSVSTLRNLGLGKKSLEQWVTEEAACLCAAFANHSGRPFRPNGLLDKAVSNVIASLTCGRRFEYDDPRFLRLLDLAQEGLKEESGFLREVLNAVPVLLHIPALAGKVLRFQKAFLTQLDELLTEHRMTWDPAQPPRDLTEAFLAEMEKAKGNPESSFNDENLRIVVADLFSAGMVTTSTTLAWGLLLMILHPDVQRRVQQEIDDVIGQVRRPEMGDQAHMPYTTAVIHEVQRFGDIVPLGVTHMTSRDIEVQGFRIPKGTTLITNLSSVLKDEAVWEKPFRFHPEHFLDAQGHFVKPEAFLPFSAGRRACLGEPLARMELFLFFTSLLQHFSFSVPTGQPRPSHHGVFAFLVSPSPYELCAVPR

[1] = cytotoxicity in KRAS-transformed pancreatic duct cells, primary screen, cell-based, fluorescence, HTS (AID 431); assay type: functional; conditions: Homo sapiens;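 further: cell line used: HPDE-C7K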
[2] = cytotoxicity in HPDE-C7 cells, cell-based, fluorescence, HTS (AID 430); assay type: functional; conditions: Homo sapiens
H9c2 = assay: cells; assay type: functional, cell-based; conditions: Rattus norvegicus, H9c2, Myocardium;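 further: confirmatory concentration-response retest of ultra-high-throughput screening hits for modulation of myocardial damage; cell death induced by hydrogen peroxide oxidative stress; compound pretreatment for 60 min then peroxide exposure for 2 h; potency is for protecting the cells against peroxide damage rather than for killing them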
[3] = HepG2 cell cytotoxicity, dose response, cytotoxicity control, cherry-picked samples (AID 1159577); assay type: functional, cell-based
[4] = Late stage assay provider results from the probe development effort to identify selective inhibitors of heat shock protein 90 (HSP90): Absorbance-based cell proliferation assay in SKBR3 cells.; assay type: functional; conditions: SK-BR-3
[5] = Late stage assay provider results from the probe development effort to identify selective inhibitors of heat shock protein 90 (HSP90): Absorbance-based cell proliferation assay in MCF7 cells.; assay type: functional
Prothrombin = Prothrombin (Homo sapiens, UniProt P00734); assay: Thrombin 1536 HTS Dose Response Confirmation. [Related pubchem assays: 1046 (Thrombin 1536 HTS; hits were confirmed in this assay)]; assay type: functional
[6] = molecular target: G-protein coupled receptor 55 (Homo sapiens, UniProt Q9Y2T6); assay: GPR55 antagonists blocking LPI-driven arrestin recruitment, primary screen, imaging, U2OS, beta-arrestin-GFP, LPI agonist (AID 2013); assay type: functional;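 further: antagonist potency measured as reduced agonist-driven arrestin aggregation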
Sequence of G-protein coupled receptor 55 (Q9Y2T6 whole entry): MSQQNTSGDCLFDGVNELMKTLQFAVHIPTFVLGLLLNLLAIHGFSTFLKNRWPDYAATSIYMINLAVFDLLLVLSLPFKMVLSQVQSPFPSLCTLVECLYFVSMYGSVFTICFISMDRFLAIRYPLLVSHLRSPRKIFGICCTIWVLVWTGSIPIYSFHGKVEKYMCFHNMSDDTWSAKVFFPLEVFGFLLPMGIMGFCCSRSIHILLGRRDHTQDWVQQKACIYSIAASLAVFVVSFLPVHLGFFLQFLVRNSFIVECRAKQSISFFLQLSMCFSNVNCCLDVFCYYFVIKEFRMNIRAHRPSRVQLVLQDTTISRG

Sequence of Ephrin type-A receptor 4 (Q03137 whole entry): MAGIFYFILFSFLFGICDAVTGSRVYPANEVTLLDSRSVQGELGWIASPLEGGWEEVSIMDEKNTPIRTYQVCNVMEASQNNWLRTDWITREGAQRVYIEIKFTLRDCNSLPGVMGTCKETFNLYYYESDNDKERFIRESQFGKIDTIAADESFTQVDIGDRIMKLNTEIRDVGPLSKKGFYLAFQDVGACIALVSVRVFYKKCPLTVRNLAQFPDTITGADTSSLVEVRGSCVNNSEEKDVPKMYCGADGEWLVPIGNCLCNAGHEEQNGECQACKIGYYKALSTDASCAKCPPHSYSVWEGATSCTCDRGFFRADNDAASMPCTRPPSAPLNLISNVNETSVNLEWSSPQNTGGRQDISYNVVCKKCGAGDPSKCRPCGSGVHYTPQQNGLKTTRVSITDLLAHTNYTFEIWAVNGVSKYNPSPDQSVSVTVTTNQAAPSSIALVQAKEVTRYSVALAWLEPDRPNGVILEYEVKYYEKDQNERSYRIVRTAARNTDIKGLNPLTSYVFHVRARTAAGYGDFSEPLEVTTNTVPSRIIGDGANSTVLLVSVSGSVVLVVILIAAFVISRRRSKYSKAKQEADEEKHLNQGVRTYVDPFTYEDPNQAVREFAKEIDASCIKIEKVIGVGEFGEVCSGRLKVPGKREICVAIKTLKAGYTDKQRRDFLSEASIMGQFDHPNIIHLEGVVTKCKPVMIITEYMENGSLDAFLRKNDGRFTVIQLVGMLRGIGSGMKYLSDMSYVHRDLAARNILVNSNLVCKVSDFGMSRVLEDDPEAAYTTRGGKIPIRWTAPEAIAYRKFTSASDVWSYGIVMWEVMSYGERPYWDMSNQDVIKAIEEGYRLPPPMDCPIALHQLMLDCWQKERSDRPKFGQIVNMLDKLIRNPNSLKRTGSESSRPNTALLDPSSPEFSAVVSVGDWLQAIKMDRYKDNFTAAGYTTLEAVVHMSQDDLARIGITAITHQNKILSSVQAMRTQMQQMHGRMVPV

Compound: CCC(=O)N1CCN(c2ccc(NC(=O)c3cc4ccccc4o3)cc2Cl)CC1
EC50 [1]: 10.9 µM (active)
EC50 [2]: 11.5 µM (active)
IC50 (Protein skinhead-1): > 100 µM (inactive)
IC50 (H9c2): 15.9 µM (active)

Compound: CN1C(=O)c2cc(NC(=O)c3ccc4c(c3)OCO4)ccc2OC[C@@H]2O[C@@H](CC(=O)O)CC[C@@H]21
AC50 [3]: 38.5 µM (active)

Compound: CCCCc1ccc(NC(=O)c2cc(=O)c(OC)c[nH]2)cc1
IC50 [4]: > 100 µM (inactive)
IC50 [5]: > 100 µM (inactive)

Compound: Cc1[nH]c2c(Br)cccc2c1[C@H]1[C@@H](CC#N)C1(C)C
IC50 [6]: 1.49 µM (active)

Compound: O=C1OC(=O)/C(=C\NC23CC4CC(CC(C4)C2)C3)C=C1Br
IC50 [4]: 12.9 µM (inactive)
IC50 [5]: 2.6 µM (active)

Compound: COc1ccc(NC(=O)c2cc(-c3cc(C)ccc3O)[nH]n2)cc1Cl
EC50 [1]: > 20 µM (not active)
EC50 [2]: > 20 µM (not active)

Compound: CCOc1ccccc1N/C=C1\C(=O)OC(=O)c2ccccc21
IC50 [4]: > 100 µM (inactive)
IC50 [5]: > 100 µM (inactive)

The remaining lines, values ahead:

IC50 (Ephrin type-A receptor 4): > 100 µM (not active)
Compound: N#Cc1sc2nc(-c3cccs3)cc(-c3ccccc3)c2c1N

IC50 (Ephrin type-A receptor 4): 1.79 µM (active)
IC50 (Protein skinhead-1): 60.8 µM (inactive)
AC50 (Cytochrome P450 2D6): 1.78 µM (inconclusive)
Compound: CCOc1ccc(/C=C/C2=Cc3c(sc(NC(=O)CSc4nnc(N)[nH]4)c3C#N)C(C)(C)C2)cc1

IC50 (Prothrombin): 0.521 µM (active)
Compound: O=C(c1cccc([N+](=O)[O-])c1)n1nc(-c2ccccc2)nc1NCc1ccccc1

IC50 (Prothrombin): > 50 µM (not active)
Compound: COc1ccc(S(=O)(=O)CCc2nnc(NC(=O)c3cccs3)s2)cc1

IC50 (Prothrombin): > 50 µM (not active)
Compound: CCOc1ccc(NC(=O)c2ccc(CNc3c(N4CCCC4)c(=O)c3=O)cc2)cc1

— ChEMBL document CHEMBL1201862, “PubChem BioAssay data set” (2004)
